What was measured:
Experiment in all cases: radiometric kinase assay (Eurofins KinaseProfiler)
Assay type in all cases: biochemical
Conditions in all cases: 2 µM LXY18; Mg/ATP; 120 min; room temperature; no pre-incubation
[1] = target: T1, MKK3 (Homo sapiens, UniProt P46734)
T1 construct: gene MAP2K3; Eurofins KinaseProfiler panel kinase
T1 sequence (P46734 1-347): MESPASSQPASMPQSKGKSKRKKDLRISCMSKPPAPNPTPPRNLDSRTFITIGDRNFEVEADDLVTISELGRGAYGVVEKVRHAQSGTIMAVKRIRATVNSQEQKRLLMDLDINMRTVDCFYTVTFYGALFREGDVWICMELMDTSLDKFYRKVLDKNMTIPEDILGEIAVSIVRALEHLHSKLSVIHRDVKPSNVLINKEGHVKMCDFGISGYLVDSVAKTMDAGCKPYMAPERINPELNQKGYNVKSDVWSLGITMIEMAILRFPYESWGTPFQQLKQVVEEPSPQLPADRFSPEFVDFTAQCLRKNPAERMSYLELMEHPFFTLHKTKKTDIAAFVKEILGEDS

[2] = target: T2, ABL (Homo sapiens, UniProt P00519, H396P)
T2 construct: gene ABL1; Eurofins KinaseProfiler panel kinase

[3] = target: T3, ABL (Homo sapiens, UniProt P00519)
T3 construct: gene ABL1; Eurofins KinaseProfiler panel kinase

COc1cc(NC(C)=O)cc(Oc2ccnc3ccc(Br)cc23)c1 [LXY18, N-(3-((6-bromoquinolin-4-yl)oxy)-5-methoxyphenyl)acetamide]
% inhibition at 2 μM [1]: The only positive hits in the kinome assay were MKK3, ABL, and an activating mutant | % inhibition at 2 μM [2]: MKK3, ABL, and an activating mutant ABL (H396P) | % inhibition at 2 μM [3]: The only positive hits in the kinome assay were MKK3, ABL, and an activating mutant
